Legend:
[1] = Compound was evaluated for protection against cisplatin-induced emesis by measuring number of retches in ferrets when administered intravenously at 0.03 mg/kg.; format: functional, Mustela putorius furo; conditions: route intravenous
[2] = system: Rattus norvegicus; assay: Inhibitory activity against Bezold-jarisch functional assay, inducing a transient bradycardia upon intravenous administration of 5-hydroxytryptamine-(10 ug/kg) in anesthetized rats.; conditions: read-out: ID50 (the source's name)
[3] = Compound was evaluated for protection against cisplatin-induced emesis by measuring number of emetic episodes in ferrets when administered intravenously at 0.1 mg/kg.; format: functional, Mustela putorius furo; conditions: route intravenous
[4] = Compound was evaluated for protection against cisplatin-induced emesis by measuring number of retches in ferrets when administered intravenously at 0.1 mg/kg.; format: functional, Mustela putorius furo; conditions: route intravenous
[5] = Compound was evaluated for protection against cisplatin-induced emesis by measuring number of emetic episodes in ferrets when administered intravenously at 0.03 mg/kg.; format: functional, Mustela putorius furo; conditions: route intravenous
[6] = Compound was evaluated for protection against cisplatin-induced emesis by measuring number of retches in ferrets when administered intravenously at 0.3 mg/kg.; format: functional, Mustela putorius furo; conditions: route intravenous
[7] = Compound was evaluated for protection against cisplatin-induced emesis by measuring number of emetic episodes in ferrets when administered intravenously at 0.01 mg/kg; format: functional, Mustela putorius furo; conditions: route intravenous
[8] = Compound was evaluated for protection against cisplatin-induced emesis by measuring number of retches in ferrets when administered perorally at 0.3 mg/kg.; format: functional, Mustela putorius furo; conditions: route oral
[9] = Compound was evaluated for protection against cisplatin-induced emesis by measuring number of emetic episodes in ferrets when administered perorally at 0.03 mg/kg; format: functional, Mustela putorius furo; conditions: route oral
[10] = Compound was evaluated for protection against cisplatin-induced emesis by measuring number of emetic episodes in ferrets when administered perorally at 0.1 mg/kg; format: functional, Mustela putorius furo; conditions: route oral
[11] = Compound was evaluated for protection against cisplatin-induced emesis by measuring number of retches in ferrets when administered perorally at 0.03 mg/kg; format: functional, Mustela putorius furo; conditions: route oral
[12] = Compound was evaluated for protection against cisplatin-induced emesis by measuring number of emetic episodes in ferrets when administered intravenously at 0.3 mg/kg; format: functional, Mustela putorius furo; conditions: route intravenous
[13] = Compound was evaluated for protection against cisplatin-induced emesis by measuring number of retches in ferrets when administered intravenously at 0.01 mg/kg; format: functional, Mustela putorius furo; conditions: route intravenous
[14] = Compound was evaluated for protection against cisplatin-induced emesis by measuring number of emetic episodes in ferrets when administered perorally at 0.3 mg/kg; format: functional, Mustela putorius furo; conditions: route oral
[15] = Compound was evaluated for protection against cisplatin-induced emesis by measuring number of retches in ferrets when administered perorally at 0.1 mg/kg; format: functional, Mustela putorius furo; conditions: route oral
[16] = Compound was evaluated for protection against cisplatin-induced emesis by measuring number of retches in ferrets when administered intravenously at 0.1 mg/kg; format: functional, Mustela putorius furo; conditions: route intravenous

Compound: Cc1[nH]cnc1Cn1cccc(-c2cccs2)c1=O
- No. of retches [1]: 90.8
- ED50 [2]: 0.27 µg/kg
- No. of emetic episodes [3]: 1.3
- No. of retches [4]: 22
- No. of emetic episodes [5]: 6

Compound: Cc1cc2c(=O)n(Cc3[nH]cnc3C)ccc2cc1N
- ED50 [2]: 4.1 µg/kg

Compound: CCn1c2ccccc2c2c3c(=O)n(Cc4[nH]cnc4C)ccc3ccc21
- ED50 [2]: 43.9 µg/kg

Compound: Cc1[nH]cnc1Cn1cccc(-c2cccc([N+](=O)[O-])c2)c1=O
- ED50 [2]: > 100 µg/kg

Compound: Cc1[nH]cnc1Cn1cccc(-c2cc3ccccc3s2)c1=O
- ED50 [2]: > 100 µg/kg

Compound: Cc1[nH]cnc1Cn1cccc(-c2ccc(Br)s2)c1=O
- ED50 [2]: 7.49 µg/kg

Compound: Cc1ccsc1-c1cccn(Cc2[nH]cnc2C)c1=O
- ED50 [2]: 0.44 µg/kg

Compound: COc1ccccc1-c1cccn(Cc2[nH]cnc2C)c1=O
- ED50 [2]: 18.2 µg/kg

Compound: Cc1[nH]cnc1Cn1cccc(-c2ccccc2)c1=O
- ED50 [2]: 12 µg/kg

Compound: Cc1cccc(-c2cccn(Cc3[nH]cnc3C)c2=O)c1
- ED50 [2]: 9.03 µg/kg

Compound: Cc1[nH]cnc1Cn1ccc2cc(N)c(Cl)cc2c1=O
- No. of retches [6]: 18.8
- No. of emetic episodes [7]: 10
- No. of retches [8]: 3.5
- No. of emetic episodes [9]: 8.8
- No. of emetic episodes [10]: 1.2
- No. of retches [11]: 142.2
- No. of retches [1]: 71
- No. of emetic episodes [12]: 0.8
- No. of retches [13]: 116.8
- ED50 [2]: 0.36 µg/kg
- No. of emetic episodes [14]: 0.2
- No. of emetic episodes [3]: 1.3
- No. of emetic episodes [5]: 4.8
- No. of retches [15]: 18.6
- No. of retches [16]: 26.5

Compound: Cc1[nH]cnc1Cn1cccc(-c2ccco2)c1=O
- ED50 [2]: 0.9 µg/kg

Compound: COc1ccc2c(ccc3ccn(Cc4[nH]cnc4C)c(=O)c32)c1
- ED50 [2]: 56.6 µg/kg

Compound: Cc1[nH]cnc1Cn1ccc2c(O)nc3ccccc3c2c1=O
- ED50 [2]: 0.05 µg/kg

Compound: Cc1[nH]cnc1Cn1cnc2ccccc2c1=O
- ED50 [2]: > 100 µg/kg

Compound: Cc1[nH]cnc1Cn1ccc2c(O)cc3ccccc3c2c1=O
- ED50 [2]: 0.62 µg/kg

Compound: COc1cc(N)c(Cl)cc1C(=O)NCc1[nH]cnc1C
- ED50 [2]: 3.53 µg/kg

Compound: Cc1nc[nH]c1Cn1ccc2c(C(=O)N(C)C)cc3ccccc3c2c1=O
- ED50 [2]: 7.46 µg/kg

Compound: Cc1[nH]cnc1Cn1ccc2ccccc2c1=O
- ED50 [2]: 38.7 µg/kg

Compound: Cc1[nH]cnc1Cn1cccc(-c2cccc(Cl)c2)c1=O
- ED50 [2]: 10 µg/kg

Compound: Cc1[nH]cnc1Cn1ccc2ccc(Cl)cc2c1=O
- ED50 [2]: 25.5 µg/kg

Compound: Cc1[nH]cnc1Cn1ccc2c3ccccc3c3ccccc3c2c1=O
- ED50 [2]: 6.95 µg/kg

Compound: Cc1[nH]cnc1Cn1ccc2nc3ccccc3cc2c1=O
- ED50 [2]: 19.5 µg/kg

Compound: Cc1[nH]cnc1Cn1ccc2c(c1=O)-c1ccsc1CC2
- ED50 [2]: 2.78 µg/kg

Compound: COc1cccc(-c2cccn(Cc3[nH]cnc3C)c2=O)c1
- ED50 [2]: 26.7 µg/kg

Compound: Cc1[nH]cnc1Cn1ccc2cccc(N)c2c1=O
- ED50 [2]: 53.1 µg/kg
